Each structure is given as a SMILES string. Calls of active or inactive are those of the source. The rule behind the calls is not given here.

The subject of assay [1] is Respiratory syncytial virus. As to the kind of experiment: Antiviral activity against Respiratory syncytial virus assessed as reduction of virus-induced cytopathic effect. It is filed as functional, organism-based.
Assay [2] deals with Respiratory syncytial virus. As to the kind of experiment: Antiviral activity against Respiratory syncytial virus assessed as reduction of virus-induced cytopathic effect at maximal non-toxic concentration. It is filed as functional, organism-based.

As for `Cc1occc(=O)c1O[C@@H]1O[C@H](CO[C@@H]2OC[C@](O)(CO)[C@H]2O)[C@@H](O)[C@H](O)[C@H]1O`, the outcome in assay [1] was Active.
Take `Cc1occc(=O)c1O[C@@H]1O[C@H](CO[C@@H]2OC[C@](O)(COC(=O)/C=C/c3ccc(O)c(O)c3)[C@H]2O)[C@@H](O)[C@H](O)[C@H]1O`: in assay [2], the result was inactive.
For the molecule `CCCCOC(=O)[C@@H](Cc1ccc(O)c(O)c1)OC(=O)/C=C/c1ccc(O)c(O)c1`, in assay [2], the outcome was inactive.
Regarding `COC(=O)[C@@H](Cc1ccc(O)c(O)c1)OC(=O)/C=C/c1ccc(OC)c(O)c1`, the result in assay [2] was inactive.
For the molecule `OCCc1cc(O)cc(O[C@@H]2O[C@H](CO)[C@@H](O)[C@H](O)[C@H]2O)c1`, the outcome in assay [1] was Active.
Take `COC(=O)[C@@H](Cc1ccc(O)c(O)c1)OC(=O)/C=C/c1ccc(O)c(O)c1`: the result in assay [2] was inactive.
Still for that read-out and setting: the same measure for `Cc1occc(=O)c1O[C@@H]1O[C@H](CO[C@@H]2OC[C@](O)(COC(=O)/C=C/c3ccc(O)cc3)[C@H]2O)[C@@H](O)[C@H](O)[C@H]1O`: “inactive”.
Turning to `COC(=O)[C@@H](Cc1ccc(O)c(O)c1)OC(=O)/C=C/c1ccc(O)c(O[C@@H]2O[C@H](CO)[C@@H](O)[C@H](O)[C@H]2O)c1`, the outcome in assay [2] was inactive.
On the same count and under the same terms, the same measure for `N#C[C@H](O[C@@H]1O[C@H](CO[C@@H]2OC[C@](O)(COC(=O)/C=C/c3ccc(O)cc3)[C@H]2O)[C@@H](O)[C@H](O)[C@H]1O)c1ccccc1`: “inactive”; for `CCCCOC(=O)[C@@H](Cc1ccc(O)c(O)c1)OC(=O)/C=C/c1ccc(O)c(O[C@@H]2O[C@H](CO)[C@@H](O)[C@H](O)[C@H]2O)c1`: “inactive”.
Turning to `O=C(/C=C/c1ccc(O)c(O)c1)O[C@H](Cc1ccc(O)c(O)c1)C(=O)O`, the outcome in assay [2] was inactive.
`COc1cc(O[C@@H]2O[C@H](CO[C@@H]3OC[C@](O)(COC(=O)/C=C/c4ccc(O)cc4)[C@H]3O)[C@@H](O)[C@H](O)[C@H]2O)cc(OC)c1OC`: the result in assay [2] was inactive.
Regarding `O=C(/C=C/c1ccc(O)c(O)c1)O/C=C\c1ccc(O)c(O)c1`, in assay [2], the outcome was inactive.
For the molecule `O=C(/C=C/c1ccc(O)c(O[C@@H]2O[C@H](CO)[C@@H](O)[C@H](O)[C@H]2O)c1)O/C=C\c1ccc(O)c(O)c1`, the result in assay [2] was inactive.
Same read-out and setting: the same measure for `O=C(O)/C=C/c1ccc(O)c(O)c1`: “inactive”.

Values taken from ChEMBL document CHEMBL2331186, “Five new phenolic glycosides from Hedyotis scandens” (Bioorg Med Chem Lett, 2013).
